We go through one compound from US20240277637A1, “CAPSAICIN DERIVATIVES IN THE TREATMENT OF IDIOPATHIC PULMONARY FIBROSIS” (aXichem AB, priority 2021, published 2024).

In this assay the test system is human corneal epithelial cells. As to the kind of experiment: Proliferation assay, PDGF-stimulated corneal epithelial proliferation (Example 1). Type of assay: cell-based. The note with it: for IC50: Homo sapiens, Corneal epithelial cell, 10 ng/ml PDGF, 72 hours. How it is done: Primary isolated human corneal epithelial cells; Normal, Human cells (ATCC® PCS-700-010™) were maintained in culture at 37° C. with 5% CO2 and 95% humidity in serum reduced (5% fetal calf serum) modified promocell media (MPM) supplemented with 4 ng/ml fibronectin (FN), 2 ng/ml human recombinant vascular endothelial growth factor (VEGF) and 4 ng/ml basic fibroblast growth factor (bFGF).
Corneal cells were harvested by trypsinization at 37° C. and neutralized with trypsin-neutralizing solution. A suspension of 50,000 cells in MPM/DMEM was added to 25 ml flasks. The cells were incubated with phenylcapsaicin or SU9518 for 1 hour in cytokine-free medium at standard conditions and incubated for another 72 hours in the presence of final mediums (either with 10 ng/ml PDGF-AB+4 ng/ml FN, or with 2 ng/ml VEGF+4 ng/ml bFGF+4 ng/ml FN). The cells were then dispersed in trypsin, resuspended, and counted in a coulter counter.

Molecules are shown by their SMILES. Like-named read-outs stand apart in the source and are kept apart here.

Regarding `COc1cc(CNC(=O)CCCCC#Cc2ccccc2)ccc1O` [Compound 2, N-(4-hydroxy-3-methoxybenzyl)-7-phenylhept-6-ynamide], the IC50 runs as follows: (read-out: IC50, PDGF-induced epithelial proliferation) approximately 1000 nM; (read-out: IC50, PDGF-induced proliferation) approximately 1000 nM. Moreover, the “selectivity for PDGF pathway” value (PDGF- versus VEGF+bFGF-induced proliferation, corneal cells) was “work selectively on the PDGF pathway”.
